Patent US9618501B2, “Three-dimensional fibrous scaffolds for cell culture” (University of South Florida, priority 2012, dated 2017)
Like-named read-outs stand apart in the source and are kept apart here.

What was measured:
Format in all cases: cell-based
MCF-7 cells [1] = test: Inhibition of spheroid formation and EMT markers in MCF-7 cells on 3P scaffold
Description: (§1) To determine if treatment by these agents would deregulate EMT in fully formed spheroids, the same concentration of drugs were administered to LLC spheroids cultured at day 4.

LLC spheroids [2] = test: EMT marker expression in fully formed LLC spheroids treated at day 4
Description: as §1

MCF-7 cells [3] = test: Dose dependent cytotoxic response of MCF-7 cells, monolayer vs 3P scaffold (calcein AM/ethidium live cell count); settings: for IC50: Homo sapiens, MCF7, 48 h, 48 hours of drug; for IC50 for 3P cultures relative to monolayer cultures: MCF7 cells, 3P scaffold vs monolayer
Description: MCF cells (7×10^3) were cultured on monolayer and 3P scaffold for 7 days then treated with different concentration of LY294002 and U0126 for 48 hours. Cells were stained with calcein/am and ethydium bromide then counted. Mean percentage of live cells (+/−SEM) were plotted as a function of drug concentration on and represents 4 replicates in 3 separate experiments. Box data points indicate monolayer and diamond data points indicate 3P scaffold.
To further explore the utility of the 3P scaffold as a tool to monitor chemotherapeutic prevention of EMT, MCF-7 breast cancer cells were treated with Doxorubicin and Ly294002 and U0126 inhibitors to prevent spheroid formation and examined for a differential dose-dependent response which was compared with response in monolayer 2D culture. […] The IC-50 of a drug is defined as the […] of a drug to inhibit biological or biochemical function.

[4] = tested on: biopsy induced tumoroids (BITs); test: Chemosensitivity of biopsy induced tumoroids (BITs) from FNAs of implanted LLC1 mouse tumors on 3P scaffolds; settings: for IC50: Mus musculus, LLC1
Description: FIG. 17 illustrates biopsy tumoroids (day 2) treated with 1 μM each of LY294002 or U0126 for 3 days. The average size of biopsy tumoroids on 3P scaffolds (n=10 controls, 55 LY294002 and 50 U0126) is shown.
Culturing fine needle aspirates (FNAs) of implanted mouse tumors: LLC1 cells (5×10^5) were subcutaneously injected into the flanks of wild type C57BL/6 mice (National Cancer Institute). Tumor formation was monitored for 2 weeks after which tumor biopsies were collected by fine needle aspiration. Briefly, a 23-gauge needle was inserted into the tumor using a rotating motion and the tissue samples were flushed from the needle by attaching a syringe filled with tissue culture medium and expelling the contents into a sterile tube. This process was repeated twice. The three collected tumor samples were pooled and single cell suspensions were cultured on the scaffold.
Chemosensitivity of tumor biopsies grown on 3P scaffolds: To determine if the 3P scaffold can be utilized to culture tumor biopsies, single-cell suspensions of FNAs of implanted mouse tumors were cultured on 3P scaffolds. […] In addition to tumor cells, BITs were examined for the presence of stromal cells that are typical of in vivo tumor microenvironment (TME) (Mallela et al., (2013) Stem Cells 31: 1321-1329) by immunostaining with antibodies to respective cell surface markers.
To determine if the biopsy tumoroids cultured on 3P scaffolds can be utilized to assess drug sensitivity, FNA tumoroids were cultured in the presence or absence of the inhibitors, LY294002 and U0126.

LLC spheroids [5] = test: Drug efficacy on LLC spheroids grown on 3P scaffold (spheroid size and number)
Description: Drug efficacy analysis using 3P scaffold: To assess the ability of the 3P scaffold to monitor therapeutic efficacy to treat tumors, LLC spheroids were treated with different concentrations of the PI3K pathway inhibitor Ly294002 (1.0 μM, 0.1 μM, and 0.01 μM) and spheroid viability was assessed over a time period of 24 hours to 96 hours.

tumor cells = test: Doxorubicin sensitivity of tumor cells grown on 3PC scaffolds vs monolayer
Description: It was also determined that PLGA naked scaffolds are biocompatible and show increased tumorigenesis potential. From these observations, one can conclude that these 3D matrices can be used as a model to study cancer.

[6] = 0.01 μM, 24 hours post treatment
[7] = 0.01 μM, 96 hours post treatment
[8] = 0.1 μM, 24 hours post treatment
[9] = 1.0 μM, 24 hours post treatment
[10] = MCF-7 on 3P scaffold, read-out: IC-50
[11] = MCF-7 on monolayer, read-out: IC-50

With `N#CC(=C(/N)Sc1ccccc1N)/C(C#N)=C(\N)Sc1ccccc1N` [U0126] the “spheroid formation and proliferation on 3P scaffolds” value (MCF-7 cells [1]; MCF-7 treated after 24 hours of culture, observed on day 4) was “prevented spheroid formation and proliferation”, the “vimentin and E-cadherin expression” value (MCF-7 cells [1]; cells on 3P scaffold treated after 24 hours of culture) was “down regulating vimentin while maintaining E-cadherin expression” and the “vimentin and E-cadherin expression (EMT inhibition)” value (LLC spheroids [2]) was “lack of vimentin expression and a concomitant expression of E-cadherin”. For the same compound, the IC50 (MCF-7 cells [3]; MCF-7 on 3P scaffold) was 106 nM, the IC50 (MCF-7 cells [3]; MCF-7 on monolayer) was 10.6 nM and the “IC50 for 3P cultures relative to monolayer cultures” value (MCF-7 cells [3]) was 100 fold. The “growth of BITs” value ([4]; FNA tumoroids on 3P scaffold cultured with inhibitor) was “decreases in tumoroid size” and the IC50 [4] was > 1000 nM.

With `O=c1cc(N2CCOCC2)oc2c(-c3ccccc3)cccc12` [LY294002] the “average decrease in spheroid size compared to untreated spheroids” value (“average decrease … to untreated spheroids” below) (LLC spheroids [5]; [6]) was 17+/−12.5%, the “decrease in spheroid numbers” value (LLC spheroids [5]; [6]) was 14.5+/−8.52% and the “decrease in spheroid numbers” value (LLC spheroids [5]; 0.01 μM, 48 hours) was 40.3+/−2.44%. The “average decrease in spheroid size” value (LLC spheroids [5]; 0.01 μM, 48 hours post treatment) was 28.9+/−9.3%, the “average decrease in spheroid size” value (LLC spheroids [5]; [7]) was 63+/−5.9% and the “decrease in spheroid numbers” value (LLC spheroids [5]; [7]) was 93.3+/−0.48%. The “average decrease … to untreated spheroids” value (LLC spheroids [5]; [8]) was 22.0+/−10.9%, the “decrease in spheroid numbers” value (LLC spheroids [5]; [8]) was 26.8+/−4.38% and the “decrease in spheroid numbers” value (LLC spheroids [5]; 0.1 μM, 48 hours) was 52.6+/−2.93%. For the same compound, the “average decrease in spheroid size” value (LLC spheroids [5]; 0.1 μM, 48 hours post treatment) was 32.6+/−5.97%, the “average decrease … to untreated spheroids” value (LLC spheroids [5]; [9]) was 37.3+/−8.4% and the “decrease in spheroid numbers” value (LLC spheroids [5]; [9]) was 37.4+/−3.8%. For the same compound, the “decrease in spheroid numbers” value (LLC spheroids [5]; 1.0 μM, 48 hours) was 61.7+/−2.92%, the “average decrease in spheroid size” value (LLC spheroids [5]; 1.0 μM, 48 hours post treatment) was 51.2+/−6.73% and the IC50 (MCF-7 cells [3]; [10]) was 1150 nM. For the same compound, the IC50 (MCF-7 cells [3]; [11]) was 130 nM, the “IC50 for 3P cultures relative to monolayer cultures” value (MCF-7 cells [3]) was 10 fold and the IC50 ([4]; biopsy tumoroids (BITs) on 3P scaffold, read-out: IC50) was > 1000 nM.

For `COc1cccc2c1C(=O)c1c(O)c3c(c(O)c1C2=O)C[C@@](O)(C(=O)CO)C[C@@H]3O[C@H]1C[C@H](N)[C@H](O)[C@H](C)O1` [doxorubicin], the “sensitivity of tumor cells compared to cells grown on monolayer” value (tumor cells) was “less sensitive”, the IC50 (MCF-7 cells [3]; [10]) was 12000 nM and the IC50 (MCF-7 cells [3]; [11]) was 600 nM.
